Measurements as given in patent publication US8101618B2, “1,4-substituted piperazine derivatives” (MSD K.K., priority 2005, dated 2012).
pIC50: −log10 of the molar value.

Key:
[1] = target: T1, human metabotropic glutamic acid receptor 1a (mGluR1a) (Homo sapiens, UniProt Q13255); experiment: Measurement of intracellular calcium concentration (FLIPR) in mGluR1a-expressing CHO cells; format: cell-based; settings: for pIC50: Fluo-3, compound added 5 minutes before 10 μM glutamic acid, read-out: IC50 (inhibition of the calcium increase caused by 10 μM glutamic acid); for agonistic effect to mGluR1: to 10 μM, intracellular calcium
T1 construct: expressed in transfected cells
Method: Using LIPOFECTAMINE (BY Gibco BRL), CHO cells were transfected with a cDNA of a human metabotropic glutamic acid receptor 1a (mGluR1a), thereby obtaining an mGluR1a stable expression strain. The mGluR1a-expressing CHO cells were incubated in a DMEM medium containing 10% dialyzed fetal calf serum, 1% proline, 100 units/ml penicillin, 0.1 mg/ml streptomycin sulfate, and 2 mM glutamine.
On the day before the test day, the mGluR1a-expressing CHO cells that had been plated in a 96-well black plate (View Plate by Packard) at […] with 4 μM Fluo-3 were incubated in a CO2 incubator for 1 hour. Next, the cells were washed four times with an HBSS solution containing 20 mM HEPES and 2.5 mM Probenecid, and then the intracellular calcium concentration was measured using Fluorescence Imaging Plate Reader (FLIPR by Molecular Device). The test compound and glutamic acid were conditioned with an HBSS solution containing 20 mM HEPES and 2.5 mM Probenecid. The test compound was added to the system before 5 minutes of agonist stimulation, and 10 μM glutamic acid was used as the agonist.

[2] = test system: Male ICR (CD-1) mice; experiment: Inhibitory effect of compound to mouse action increased by methamphetamine; format: in vivo; settings: compound 30 mg/kg intraabdominal 30 minutes before methamphetamine 2 mg/kg subcutaneous; motion watched for 60 minutes
Method: Male ICR (CD-1) mice (20-40 g) were used. Using a motion watcher (by Neuroscience) for watching animal movement with an IR sensor, the motion of the mice was determined. A compound or a suitable solvent was administered to each mouse, and after 30 minutes, physiological saline water or methamphetamine was administered thereto. Immediately after that, the motion of the mice was watched for 60 minutes. Based on the difference between the motion of the methamphetamine-administered group and the solvent-administered group during the test term, 100%, the motion of the test compound-administered group is computed and expressed as inhibition %.

T1 sequence (Q13255 19-1194): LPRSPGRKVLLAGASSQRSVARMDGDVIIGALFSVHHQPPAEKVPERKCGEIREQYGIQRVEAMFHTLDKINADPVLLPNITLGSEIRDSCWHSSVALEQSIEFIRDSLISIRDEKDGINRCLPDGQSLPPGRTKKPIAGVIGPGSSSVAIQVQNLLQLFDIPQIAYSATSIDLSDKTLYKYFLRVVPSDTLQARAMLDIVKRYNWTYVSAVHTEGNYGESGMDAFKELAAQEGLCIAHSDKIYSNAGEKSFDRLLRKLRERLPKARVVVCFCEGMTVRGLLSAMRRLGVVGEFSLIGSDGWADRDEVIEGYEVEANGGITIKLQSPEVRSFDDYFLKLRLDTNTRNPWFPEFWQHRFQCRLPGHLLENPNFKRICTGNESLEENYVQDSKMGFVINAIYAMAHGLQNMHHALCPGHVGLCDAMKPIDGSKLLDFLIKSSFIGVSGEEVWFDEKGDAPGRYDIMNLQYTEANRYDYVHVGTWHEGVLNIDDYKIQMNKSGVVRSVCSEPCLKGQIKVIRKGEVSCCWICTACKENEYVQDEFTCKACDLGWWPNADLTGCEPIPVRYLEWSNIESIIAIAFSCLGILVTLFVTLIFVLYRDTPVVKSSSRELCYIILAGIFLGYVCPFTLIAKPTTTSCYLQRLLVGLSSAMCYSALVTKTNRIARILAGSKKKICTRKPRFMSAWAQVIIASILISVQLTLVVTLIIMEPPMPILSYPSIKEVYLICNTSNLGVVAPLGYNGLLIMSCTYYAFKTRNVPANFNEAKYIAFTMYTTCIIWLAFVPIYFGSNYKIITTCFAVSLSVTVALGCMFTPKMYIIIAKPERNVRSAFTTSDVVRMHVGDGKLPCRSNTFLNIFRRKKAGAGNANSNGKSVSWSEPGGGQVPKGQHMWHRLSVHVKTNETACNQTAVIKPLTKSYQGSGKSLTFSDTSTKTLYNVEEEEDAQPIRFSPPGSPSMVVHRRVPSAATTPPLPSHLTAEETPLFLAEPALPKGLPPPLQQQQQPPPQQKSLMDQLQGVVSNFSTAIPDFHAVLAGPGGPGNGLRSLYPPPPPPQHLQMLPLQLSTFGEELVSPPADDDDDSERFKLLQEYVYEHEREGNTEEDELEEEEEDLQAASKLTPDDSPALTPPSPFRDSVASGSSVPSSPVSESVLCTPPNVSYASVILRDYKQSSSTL

| SMILES | pIC50 [1] | agonistic effect to mGluR1 [1] | Motion (inhibition %) [2] [%] |
| --- | --- | --- | --- |
| CC(C)(C)COC(=O)N1CCN(c2nc3ccccc3o2)CC1 [Example 3, 2,2-Dimethylpropyl 4-(benzoxazol-2-yl)-1-piperazinecarboxylate] | 7.48 | no agonistic effect | – |
| Cc1ccnc(N2CCN(C(=O)OCC(C)(C)C)CC2)c1 [Example 1, 2,2-Dimethylpropyl 4-(4-methylpyridin-2-yl)-1-piperazinecarboxylate] | 8.16 | no agonistic effect | >50 |

Second part, led by results:

| pIC50 [1] | agonistic effect to mGluR1 [1] | SMILES | Motion (inhibition %) [2] [%] |
| --- | --- | --- | --- |
| 7.80 | no agonistic effect | C[C@H](O)c1nc(-c2ccnc(N3CCN(C(=O)CCC(C)(C)C)CC3)c2)no1 [Example 58, 1-(4,4-Dimethylpentanoyl)-4-(4-{5-[(1S)-hydroxyethyl]-1,2,4-oxadiazol-3-yl}pyridin-2-yl)piperazine] | >50 |
| 8.02 | no agonistic effect | C[C@@H](O)c1nc(-c2ccnc(N3CCN(C(=O)OCC(C)(C)C)CC3)c2)no1 [Example 27, 2,2-Dimethylpropyl 4-(4-{5-[(1R)-1-hydroxyethyl]-1,2,4-oxadiazol-3-yl}pyridin-2-yl)-1-piperazinecarboxylate] | >50 |
| 7.89 | no agonistic effect | CNc1nc(-c2ccnc(N3CCN(C(=O)OCC(C)(C)C)CC3)c2)no1 [Example 39, 2,2-Dimethylpropyl 4-{4-[5-(methylamino)-1,2,4-oxadiazol-3-yl]pyridin-2-yl}-1-piperazinecarboxylate] | >50 |
